From patent US12473303B2, “4-[[(7-aminopyrazolo[1,5-a]pyrimidin-5-yl)amino methyl]piperidin-3-ol compounds and their therapeutic use” (CARRICK THERAPEUTICS LIMITED, priority 2019, dated 2025)
Like-named read-outs stand apart in the source and are kept apart here.

Columns and labels:
Human CDK12 wt/CycK = Human CDK12 wt/CycK (Homo sapiens (Human), UniProt Q9NYV4); assay: Radiometric protein kinase assay (33PanQinase Activity Assay), CDK12; format: biochemical; conditions: for CDK7/CDK12: ratio greater than 1 indicated selectivity for CDK12
Sequence of Human CDK12 wt/CycK (Q9NYV4 whole entry): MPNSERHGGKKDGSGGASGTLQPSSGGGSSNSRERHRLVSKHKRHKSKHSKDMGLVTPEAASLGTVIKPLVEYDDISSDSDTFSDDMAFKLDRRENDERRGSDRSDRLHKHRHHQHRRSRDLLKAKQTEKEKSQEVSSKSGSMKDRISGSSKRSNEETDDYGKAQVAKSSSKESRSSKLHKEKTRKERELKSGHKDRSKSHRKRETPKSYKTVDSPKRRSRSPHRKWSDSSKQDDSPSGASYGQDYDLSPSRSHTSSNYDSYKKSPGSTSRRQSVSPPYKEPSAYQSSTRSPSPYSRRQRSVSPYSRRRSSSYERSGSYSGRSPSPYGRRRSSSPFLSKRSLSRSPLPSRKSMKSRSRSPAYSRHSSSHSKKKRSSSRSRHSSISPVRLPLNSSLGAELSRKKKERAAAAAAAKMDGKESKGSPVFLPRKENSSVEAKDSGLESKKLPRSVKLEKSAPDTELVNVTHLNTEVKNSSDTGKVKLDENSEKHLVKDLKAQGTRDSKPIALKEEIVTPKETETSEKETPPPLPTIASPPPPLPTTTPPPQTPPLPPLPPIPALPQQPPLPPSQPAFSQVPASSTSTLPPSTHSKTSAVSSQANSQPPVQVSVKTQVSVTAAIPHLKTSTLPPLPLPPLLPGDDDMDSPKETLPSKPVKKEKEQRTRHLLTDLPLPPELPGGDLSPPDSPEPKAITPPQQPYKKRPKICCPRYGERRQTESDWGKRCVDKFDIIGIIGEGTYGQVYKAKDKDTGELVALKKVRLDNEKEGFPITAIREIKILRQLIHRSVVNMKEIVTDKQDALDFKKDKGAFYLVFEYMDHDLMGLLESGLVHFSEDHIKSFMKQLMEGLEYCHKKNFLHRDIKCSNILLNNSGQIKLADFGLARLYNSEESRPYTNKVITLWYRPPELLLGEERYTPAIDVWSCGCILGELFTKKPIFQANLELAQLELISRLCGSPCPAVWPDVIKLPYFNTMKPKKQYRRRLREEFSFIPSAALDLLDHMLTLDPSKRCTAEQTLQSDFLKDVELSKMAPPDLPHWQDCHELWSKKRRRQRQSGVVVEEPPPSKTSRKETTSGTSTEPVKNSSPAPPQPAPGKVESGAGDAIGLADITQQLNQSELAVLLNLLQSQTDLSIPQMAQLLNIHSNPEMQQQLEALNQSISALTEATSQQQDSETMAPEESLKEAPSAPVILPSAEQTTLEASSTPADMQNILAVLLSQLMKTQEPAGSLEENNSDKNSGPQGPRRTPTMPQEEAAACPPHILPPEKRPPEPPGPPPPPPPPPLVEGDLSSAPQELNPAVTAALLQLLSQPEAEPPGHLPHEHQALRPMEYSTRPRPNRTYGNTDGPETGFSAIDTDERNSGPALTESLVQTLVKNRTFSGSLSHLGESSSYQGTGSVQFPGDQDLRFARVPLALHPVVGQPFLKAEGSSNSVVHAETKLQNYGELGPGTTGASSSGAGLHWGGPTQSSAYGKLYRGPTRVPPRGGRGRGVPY
Sequence of Human CDK12 wt/CycK (O75909 whole entry partner): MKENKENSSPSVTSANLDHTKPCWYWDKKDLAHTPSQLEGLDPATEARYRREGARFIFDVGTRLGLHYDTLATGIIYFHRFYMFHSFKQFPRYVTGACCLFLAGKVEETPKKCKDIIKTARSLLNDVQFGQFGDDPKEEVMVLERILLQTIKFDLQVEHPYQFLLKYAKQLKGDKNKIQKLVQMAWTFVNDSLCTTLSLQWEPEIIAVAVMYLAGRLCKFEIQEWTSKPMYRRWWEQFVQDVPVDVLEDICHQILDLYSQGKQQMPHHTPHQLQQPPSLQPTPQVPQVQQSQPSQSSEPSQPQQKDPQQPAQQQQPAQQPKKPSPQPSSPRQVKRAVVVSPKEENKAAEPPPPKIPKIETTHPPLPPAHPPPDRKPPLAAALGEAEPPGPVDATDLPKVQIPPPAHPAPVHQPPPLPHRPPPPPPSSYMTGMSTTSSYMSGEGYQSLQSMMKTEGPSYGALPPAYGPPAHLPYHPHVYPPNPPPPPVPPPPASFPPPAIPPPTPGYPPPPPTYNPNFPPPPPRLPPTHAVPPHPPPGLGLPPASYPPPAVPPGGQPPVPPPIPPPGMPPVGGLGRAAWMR
Experimental: (§1) A radiometric protein kinase assay (^33PanQinase® Activity Assay) was used for measuring the kinase activity of the two protein kinases (CDK12/CDK7). All kinase assays were performed in 96-well FlashPlates™ from PerkinElmer (Boston, MA, USA) in a 50 μL reaction volume.
(§2) The reaction cocktail was pipetted in four steps in the following order: • 20 μL of assay buffer (standard buffer) • 5 μL of ATP solution (in H2O) • 5 μL of test compound (in 10% DMSO) • 10 μL of substrate/10 μL of enzyme solution (premixed)
(§3) The reaction mixture was incubated at 30° C. for 60 min and then stopped by the addition of 2% (v/v) H3PO4. Plates were aspirated and washed two times with 200 μL 0.9% (w/v) NaCl. Incorporation of ^33Pi was determined with a microplate scintillation count (Microbeta, Wallac).
(§4) The fitting method used was a least-squares fit.

Human CDK7/CycH/MAT1 = Human CDK7/CycH/MAT1 (Homo sapiens (Human), UniProt P50613); assay: Radiometric protein kinase assay (33PanQinase Activity Assay), CDK7; format: biochemical; conditions: Table 1; ATP 3 μM
Sequence of Human CDK7/CycH/MAT1 (P50613 whole entry): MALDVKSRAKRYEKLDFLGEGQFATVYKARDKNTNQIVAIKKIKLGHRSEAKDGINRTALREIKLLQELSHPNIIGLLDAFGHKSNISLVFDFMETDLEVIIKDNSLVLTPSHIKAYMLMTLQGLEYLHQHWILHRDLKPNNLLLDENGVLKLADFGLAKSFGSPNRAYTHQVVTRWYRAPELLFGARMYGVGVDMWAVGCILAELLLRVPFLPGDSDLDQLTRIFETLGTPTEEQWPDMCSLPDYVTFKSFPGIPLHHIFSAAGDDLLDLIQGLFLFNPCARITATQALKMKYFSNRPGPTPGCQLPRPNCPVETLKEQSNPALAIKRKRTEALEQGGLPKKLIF
Sequence of Human CDK7/CycH/MAT1 (P51946 whole entry partner): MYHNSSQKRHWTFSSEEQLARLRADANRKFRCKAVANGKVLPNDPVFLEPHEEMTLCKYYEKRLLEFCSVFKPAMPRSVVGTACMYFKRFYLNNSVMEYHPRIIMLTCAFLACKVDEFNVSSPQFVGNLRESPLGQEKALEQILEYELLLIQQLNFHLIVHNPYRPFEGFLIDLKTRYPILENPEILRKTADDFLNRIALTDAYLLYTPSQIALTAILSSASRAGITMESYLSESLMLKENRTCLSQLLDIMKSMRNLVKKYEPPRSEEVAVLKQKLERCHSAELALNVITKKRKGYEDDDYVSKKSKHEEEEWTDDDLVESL
Sequence of Human CDK7/CycH/MAT1 (P51948 whole entry partner): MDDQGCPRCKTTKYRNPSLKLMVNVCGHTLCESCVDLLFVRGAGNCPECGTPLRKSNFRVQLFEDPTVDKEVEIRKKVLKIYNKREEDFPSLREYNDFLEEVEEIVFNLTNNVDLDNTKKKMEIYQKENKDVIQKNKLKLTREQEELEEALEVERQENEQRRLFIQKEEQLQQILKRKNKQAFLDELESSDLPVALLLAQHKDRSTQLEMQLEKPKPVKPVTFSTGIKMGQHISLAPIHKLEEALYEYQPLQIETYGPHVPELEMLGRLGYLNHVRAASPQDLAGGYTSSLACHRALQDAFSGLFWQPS
Experimental: as §1, §2, §3, §4

A673 cells = assay: Cellular potency in A673 cells; format: cell-based; conditions: for IC50: Homo sapiens, A673, Table 3, A673 cells; for Ratio of Biochemical Potency: Cellular Potency: Table 3, ratio >0.9 is an indicator of Cyclin K degradation
[1] = Table 1, ATP 0.3 μM, read-out: CDK12 IC50
[2] = Table 3, CDK12 kinase activity, read-out: Biochemical Potency IC50

| SMILES | IC50 (Human CDK12 wt/CycK; [1]) [nM] | CDK7/CDK12 (Human CDK12 wt/CycK; Table 1) | IC50 (Human CDK12 wt/CycK; [2]) [nM] | IC50 (Human CDK7/CycH/MAT1) [nM] | IC50 (A673 cells) [nM] | Ratio of Biochemical Potency: Cellular Potency (A673 cells) |
| --- | --- | --- | --- | --- | --- | --- |
| O[C@H]1CNCC[C@@H]1CNc1cc(NCc2cn3nc(C4CC4)ccc3n2)n2ncc(C3CC3)c2n1 [H-APPAMP-028, (3R,4R)-4-(((3-cyclopropyl-7-(((6-cyclopropylimidazo[1,2-b]pyridazin-2-yl)methyl)amino)pyrazolo[1,5-a]pyrimidin-5-yl)amino)methyl)piperidin-3-ol] | 37 | 1.8 | 37 | 68 | 13.1 | 2.8 |
| CC(C)c1cnn2c(NCc3cnc4ccccc4c3)cc(NC[C@H]3CCNC[C@@H]3O)nc12 [H-APPAMP-021, (3R,4R)-4-(((3-isopropyl-7-((quinolin-3-ylmethyl)amino)pyrazolo[1,5-a]pyrimidin-5-yl)amino)methyl)piperidin-3-ol] | 167 | 0.2 | 167 | 28 | 2.7 | 62 |
| O[C@H]1CNCC[C@@H]1CNc1cc(NCc2cn3cc(C4CC4)cc(C(F)(F)F)c3n2)n2ncc(C3CC3)c2n1 [H-APPAMP-042, (3R,4R)-4-(((3-cyclopropyl-7-(((6-cyclopropyl-8-(trifluoromethyl)imidazo[1,2-a]pyridin-2-yl)methyl)amino)pyrazolo[1,5-a]pyrimidin-5-yl)amino)methyl)piperidin-3-ol] | 100 | 9.7 | 100 | 974 | 30 | 3.3 |
| Cc1cccc2nc(CNc3cc(NC[C@H]4CCNC[C@@H]4O)nc4c(C(C)C)cnn34)cn12 [H-APPAMP-010, (3R,4R)-4-(((3-isopropyl-7-(((5-methylimidazo[1,2-a]pyridin-2-yl)methyl)amino)pyrazolo[1,5-a]pyrimidin-5-yl)amino)methyl)piperidin-3-ol] | 40 | 6.0 | 40 | 238 | 4.3 | 9.3 |
| O[C@H]1CNCC[C@@H]1CNc1cc(NCc2cn3cc(C(F)(F)F)cc(Cl)c3n2)n2ncc(C3CC3)c2n1 [H-APPAMP-033, (3R,4R)-4-(((7-(((8-chloro-6-(trifluoromethyl)imidazo[1,2-a]pyridin-2-yl)methyl)amino)-3-cyclopropylpyrazolo[1,5-a]pyrimidin-5-yl)amino)methyl)piperidin-3-ol] | 62 | 17.1 | 62 | 1060 | 5.7 | 11 |
| CC(C)c1cnn2c(NCc3nc4ccccn4c3C3CC3)cc(NC[C@H]3CCNC[C@@H]3O)nc12 [H-APPAMP-024, (3R,4R)-4-(((7-(((3-cyclopropylimidazo[1,2-a]pyridin-2-yl)methyl)amino)-3-isopropylpyrazolo[1,5-a]pyrimidin-5-yl)amino)methyl)piperidin-3-ol] | 93 | 3.0 | 93 | 283 | 19.8 | 4.7 |
| CC(C)c1cnn2c(NCc3cc4ccccc4o3)cc(NC[C@H]3CCNC[C@@H]3O)nc12 [H-APPAMP-020, (3R,4R)-4-(((7-((benzofuran-2-ylmethyl)amino)-3-isopropylpyrazolo[1,5-a]pyrimidin-5-yl)amino)methyl)piperidin-3-ol] | 540 | 0.2 | 540 | 82 | 116 | 4.7 |
| O[C@H]1CNCC[C@@H]1CNc1cc(NCc2cn3ccc(C(F)(F)F)cc3n2)n2ncc(C3CC3)c2n1 [H-APPAMP-035, (3R,4R)-4-(((3-cyclopropyl-7-(((7-(trifluoromethyl)imidazo[1,2-a]pyridin-2-yl)methyl)amino)pyrazolo[1,5-a]pyrimidin-5-yl)amino)methyl)piperidin-3-ol] | 44 | 29.3 | 44 | 1290 | 17.3 | 2.5 |
| [2H]C([2H])(Nc1cc(NC[C@H]2CCNC[C@@H]2O)nc2c(C(C)C)cnn12)c1cn2ccccc2n1 [H-APPAMP-018, (3R,4R)-4-(((7-((imidazo[1,2-a]pyridin-2-ylmethyl-d2)amino)-3-isopropylpyrazolo[1,5-a]pyrimidin-5-yl)amino)methyl)piperidin-3-ol] | 65 | 3.2 | 65 | 206 | 16.3 | 4.0 |
| Cc1ccn2cc(CNc3cc(NC[C@H]4CCNC[C@@H]4O)nc4c(C(C)C)cnn34)nc2c1 [H-APPAMP-009, (3R,4R)-4-(((3-isopropyl-7-(((7-methylimidazo[1,2-a]pyridin-2-yl)methyl)amino)pyrazolo[1,5-a]pyrimidin-5-yl)amino)methyl)piperidin-3-ol] | 38 | 3.2 | 38 | 123 | 14.9 | 2.6 |
| CC(C)c1cnn2c(NC(C)c3cn4ccccc4n3)cc(NC[C@H]3CCNC[C@@H]3O)nc12 (stereo partly drawn) [H-APPAMP-019, (3R,4R)-4-(((7-((1-(imidazo[1,2-a]pyridin-2-yl)ethyl)amino)-3-isopropylpyrazolo[1,5-a]pyrimidin-5-yl)amino)methyl)piperidin-3-ol] | 522 | 1.2 | 522 | 640 | 76.9 | 6.8 |
| CC(C)c1cnn2c(NCc3cn4cccc(C5CC5)c4n3)cc(NC[C@H]3CCNC[C@@H]3O)nc12 [H-APPAMP-013, (3R,4R)-4-(((7-(((8-cyclopropylimidazo[1,2-a]pyridin-2-yl)methyl)amino)-3-isopropylpyrazolo[1,5-a]pyrimidin-5-yl)amino)methyl)piperidin-3-ol] | 70 | 3.2 | 70 | 226 | 12.2 | 5.7 |

More lines, in order of falling IC50 (Human CDK12 wt/CycK; [1]), values ahead:

| IC50 (Human CDK12 wt/CycK; [1]) [nM] | CDK7/CDK12 (Human CDK12 wt/CycK; Table 1) | IC50 (Human CDK12 wt/CycK; [2]) [nM] | IC50 (Human CDK7/CycH/MAT1) [nM] | IC50 (A673 cells) [nM] | SMILES | Ratio of Biochemical Potency: Cellular Potency (A673 cells) |
| --- | --- | --- | --- | --- | --- | --- |
| 702 | 0.1 | 702 | 102 | 296 | CC(C)c1cnn2c(NCc3nc4ccccn4c3C(F)(F)F)cc(NC[C@H]3CCNC[C@@H]3O)nc12 [H-APPAMP-023, (3R,4R)-4-(((3-isopropyl-7-(((3-(trifluoromethyl)imidazo[1,2-a]pyridin-2-yl)methyl)amino)pyrazolo[1,5-a]pyrimidin-5-yl)amino)methyl)piperidin-3-ol] | 2.4 |
| 208 | 3.1 | 208 | 649 | 18.1 | O[C@H]1CNCC[C@@H]1CNc1cc(NCc2cn3c(C(F)(F)F)cccc3n2)n2ncc(C3CC3)c2n1 [H-APPAMP-037, (3R,4R)-4-(((3-cyclopropyl-7-(((5-(trifluoromethyl)imidazo[1,2-a]pyridin-2-yl)methyl)amino)pyrazolo[1,5-a]pyrimidin-5-yl)amino)methyl)piperidin-3-ol] | 11 |
| 100 | 7.6 | 100 | 762 | 4.6 | CCc1cnn2c(NCc3cn4cc(C5CC5)cc(C(F)(F)F)c4n3)cc(NC[C@H]3CCNC[C@@H]3O)nc12 [H-APPAMP-038, (3R,4R)-4-(((7-(((6-cyclopropyl-8-(trifluoromethyl)imidazo[1,2-a]pyridin-2-yl)methyl)amino)-3-ethylpyrazolo[1,5-a]pyrimidin-5-yl)amino)methyl)piperidin-3-ol] | 22 |
| 96 | 1.9 | 96 | 179 | 14.8 | CC(C)c1cnn2c(NCc3cnc4ccccn34)cc(NC[C@H]3CCNC[C@@H]3O)nc12 [H-APPAMP-016, (3R,4R)-4-(((7-((imidazo[1,2-a]pyridin-3-ylmethyl)amino)-3-isopropylpyrazolo[1,5-a]pyrimidin-5-yl)amino)methyl)piperidin-3-ol] | 6.5 |
| 75 | 3.7 | 75 | 274 | 8.7 | O[C@H]1CNCC[C@@H]1CNc1cc(NCc2cn3c(C4CC4)cccc3n2)n2ncc(C3CC3)c2n1 [H-APPAMP-030, (3R,4R)-4-(((3-cyclopropyl-7-(((5-cyclopropylimidazo[1,2-a]pyridin-2-yl)methyl)amino)pyrazolo[1,5-a]pyrimidin-5-yl)amino)methyl)piperidin-3-ol] | 8.6 |
| 31 | 2.2 | 31 | 69 | 2.5 | CCc1cnn2c(NCc3cn4cccc(C)c4n3)cc(NC[C@H]3CCNC[C@@H]3O)nc12 [H-APPAMP-026, (3R,4R)-4-(((3-ethyl-7-(((8-methylimidazo[1,2-a]pyridin-2-yl)methyl)amino)pyrazolo[1,5-a]pyrimidin-5-yl)amino)methyl)piperidin-3-ol] | 12 |
